Results from US10195156B2, “Compounds and compositions for intracellular delivery of agents” (ModernaTX, Inc., priority 2015, dated 2019).

Key:
[1] = Particle size and polydispersity index of nanoparticle compositions (Zetasizer Nano ZS); type: physicochemical
Outline: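 Values are size and PDI readings from a Zetasizer Nano ZS. Measurements are taken in 1×PBS; zeta potential, by contrast, uses 15 mM PBS.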

Luc expression = Luc expression in CD-1 mice (AUC relative to MC3); type: in vivo; settings: Table 7c
Description: FIG. 15 is a graph summarizing luciferase expression levels at 6 h after administration of nanoparticle compositions containing compounds of the disclosure to CD-1 mice at a dose of 0.5 mpk. Total light flux values were acquired via body luminescent imaging (BLI) 6 h after administration. In this Figure, the numbers 1-7 and 10 refer to the compositions containing Compounds 4-10 and MC3 respectively.
(§1) In contrast, hEPO expression in rats induced by administration of a nanoparticle composition including a compound according to one of formulae (I), (Ia1)-(Ia6), (Ib), (II), (IIa), (III), and (IIIa) was substantially […] than that measured for MC3. […] Table 7c and 7d show additional protein expressions and clearance data from compositions with various compounds disclosed herein as compared to with MC3.

[2] = Lipid clearance: % dose remaining in mouse liver 6 h and 24 h after administration of nanoparticle compositions; type: in vivo, CD-1 mice; settings: Table 7c
Source text: as §1

[3] = Encapsulation efficiency of RNA (QUANT-IT RIBOGREEN RNA assay); type: physicochemical
Outline: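 RiboGreen fluorescence (ex ~480, em ~520 nm) measured after 15 min at 37 °C on samples at ~5 μg/mL in TE, pH 7.5, ± 2% Triton X-100 solution. After blank subtraction, free RNA is given as intact-sample signal divided by disrupted-sample signal.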

[4] = test system: modified luciferase (Luc) expression; test: Expression upon intramuscular administration of Luc mRNA and H10 mRNA formulations; type: in vivo; settings: 6 hours after intramuscular administration
Description: Sample formulations including both modified luciferase (Luc) mRNA and H10 mRNA were prepared and administered intramuscularly at day 1 and day 21 and the resulting expression and immunogenicity were evaluated simultaneously. Formulations including compounds according to formula (20-I) were prepared and administered at doses of 0.001 and 0.01 mpk (e.g., doses of 0.0005 mpk of a formulation including Luc mRNA and a formulation including H10 mRNA or doses of 0.005 mpk of a formulation including Luc mRNA and a formulation including H10 mRNA). As shown in Table 20-4, the total flux was higher upon administration of the second dose for each composition and at each dose level. Total flux was higher for the higher dose level.

[5] = test system: luciferase (Luc) mRNA expression; test: Expression of Luc induced by sample formulations, whole-body bioluminescence after intravenous administration; type: in vivo; settings: mice, i.v., 0.5 mg/kg; for Total Flux 3 hours / Total Flux 6 hours / Total Flux 24 hours: Table 20-2
Outline: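 Read-out is whole-body bioluminescence at 3, 6 and 24 h after a single intravenous dose of 0.5 mg/kg Luc mRNA in nanoparticle formulations. Groups of n=6 mice; PBS and standard MC3 formulation as references.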

IL-6 = test: Cytokine production induced by sample formulations: IL-6; type: in vivo; settings: mice, i.v., 0.5 mpk, 6 hours; for IL-6: Table 20-4, formula (20-I), in pg/mL (unit assumed)
Outline: (§2)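 Cytokine levels were quantified at 6 hours in mice given the nanoparticle compositions i.v. at 0.5 mpk. MC3 standard formulation and PBS served as comparators.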

IP-10 = test: Cytokine production induced by sample formulations: IP-10; type: in vivo; settings: mice, i.v., 0.5 mpk, 6 hours; for IP-10: Table 20-4, formula (20-I), in pg/mL (unit assumed)
Outline: as §2

[6] = pKa of nanoparticle compositions; type: physicochemical; settings: Table 20-1
[7] = test system: modified luciferase expression; test: Expression of Luc in different organs (liver, lung, spleen, femur) 6 hours after intravenous administration; type: in vivo; settings: Table 20-3, mice, i.v., 0.5 mpk
Description: The efficacy of the nanoparticle compositions presented in Tables 1, 1a, 17-1, 19-1, 20-1 and 21-1 was further evaluated by measuring the expression of modified luciferase in the liver, lung, spleen, and femur upon administration of a given composition. Formulations were administered intravenously to mice (n=3) at a dosage of 0.5 mpk and bioluminescence measured after 6 hours. The standard MC3 formulation and a PBS control were also tested.

[8] = Table 20-1, rows without footnote mark
[9] = Table 20-1, * formulated with DOPE

Compound | PDI ([1]; Table 1b) | Size (nm) ([1]; Table 1b) | % Dose Remaining 6 hr [2] | % Dose Remaining 24 hr [2] | EE (%) ([3]; Table 1b) | IL-6 (IL-6) | IP-10 (IP-10) | PDI [1, 8] | AUC (p/s*h) (Luc expression) | Total flux (p/s) 0.001 mpk Dose 1 [4] | Total flux (p/s) 0.001 mpk Dose 2 [4] | Total flux (p/s) 0.01 mpk Dose 1 [4] | Total flux (p/s) 0.01 mpk Dose 2 [4] | Total Flux 3 hours ([5]; 3 hours) | Total Flux 6 hours [5] | Total Flux 24 hours [5] | total flux after 24 hours, rank within the named table (in words) [5] | Total Flux Liver [7] | Total Flux Lung [7] | Total Flux Spleen [7] | also measured
CCCCCCCCCN(CCCC(=O)OCCCCC)CCN(CCCCCCCCC)CC(=O)N1CCN(C(=O)CN(CCCCCCCCC)CCCC(=O)OCCCCC)CC1 [Compound 71, Pentyl 4-(nonyl(2-(4-(N-nonyl-N-(2-(nonyl(4-oxo-4-(pentyloxy)butyl)amino)ethyl)glycyl)piperazin-1-yl)-2-oxoethyl)amino)butanoate] | 0.18 | 99.9 nm | 12.39% | 9.25% | 91.0% | – | – | – | 1.77E+11 p/s*h | – | – | – | – | – | – | – | – | – | – | – | –
CCCCCCCCCN(CCCCCC(=O)OCCC)CCC1CCN(C(=O)CN(CCCCCCCCC)CCN(CCCCCCCCC)CCCCCCCCC)CC1 [Compound 59, Propyl 6-((2-(1-(N-(2-(dinonylamino)ethyl)-N-nonylglycyl)piperidin-4-yl)ethyl)(nonyl)amino)hexanoate] | 0.23 | 104.7 nm | 6.99% | 5.03% | 98.6% | – | – | – | 1.19E+11 p/s*h | – | – | – | – | – | – | – | – | – | – | – | –
CCCCCCCCCN(CCCCCCC(=O)OCC)CCC1CCN(C(=O)CN(CCCCCCCCC)CCN(CCCCCCCCC)CCCCCCCCC)CC1 [Compound 58, Ethyl 7-((2-(1-(N-(2-(dinonylamino)ethyl)-N-nonylglycyl)piperidin-4-yl)ethyl)(nonyl)amino)heptanoate] | 0.23 | 112.8 nm | 1.37% | 0.61% | 98.9% | – | – | – | 1.38E+11 p/s*h | – | – | – | – | – | – | – | – | – | – | – | –
CCCCCCCCCCCCN(CCCCCCCCCCCC)CCN(CCCCCCCCCCCC)CC(=O)O [Compound 20-1, N-(2-(Didodecylamino)ethyl)-N-dodecylglycine] | – | – | – | – | – | 62.4 | 2065.8 | – | – | 3.50E+05 p/s | 1.99E+06 p/s | 3.16E+06 p/s | 1.04E+07 p/s | 1.44E+06 | 8.30E+05 | 4.53E+05 | lowest | 3.19E+05 | 3.79E+04 | 1.70E+05 | PDI [1, 9]: 0.078; Size (nm) [1, 9]: 87.8 nm; EE (%) [3, 9]: 90.7%; pKa ([6]; * formulated with DOPE): 4.48

Further lines, with some results ahead:

PDI ([1]; Table 1b) | Size (nm) ([1]; Table 1b) | % Dose Remaining 6 hr [2] | % Dose Remaining 24 hr [2] | EE (%) ([3]; Table 1b) | IL-6 (IL-6) | IP-10 (IP-10) | PDI [1, 8] | Compound | AUC (p/s*h) (Luc expression) | Total flux (p/s) 0.001 mpk Dose 1 [4] | Total flux (p/s) 0.001 mpk Dose 2 [4] | Total flux (p/s) 0.01 mpk Dose 1 [4] | Total flux (p/s) 0.01 mpk Dose 2 [4] | Total Flux 3 hours ([5]; 3 hours) | Total Flux 6 hours [5] | Total Flux 24 hours [5] | total flux after 24 hours, rank within the named table (in words) [5] | Total Flux Liver [7] | Total Flux Lung [7] | Total Flux Spleen [7] | also measured
– | – | – | – | – | 0 | 25.3 | 0.220 | CCCCCCCCCN(CCCCCCCCC)CCN(CCO)CCCCCC(=O)OCCCCC [Compound 20-6, Pentyl 6-((2-(dinonylamino)ethyl)(2-hydroxyethyl)amino)hexanoate] | – | 8.57E+05 p/s | 9.79E+05 p/s | 3.41E+06 p/s | 6.04E+06 p/s | 3.39E+10 | 5.44E+06 | 5.48E+05 | lowest | 7.75E+05 | 2.32E+04 | 2.35E+05 | total flux after 3 hours, rank within the named table (in words) ([5]; 3 hours): highest after 3 hours; IL-6 induction, rank within the named table (in words) (IL-6): lowest; IP-10 induction, rank or comparison with IL-6 (in words) (IP-10): lowest; Size (nm) [1, 8]: 82.5 nm; EE (%) [3, 8]: 94.7%; pKa ([6]; rows without footnote mark): 6.73
– | – | – | – | – | 169.3 | 270.5 | 0.160 | CCCCCCCCCCCCN(CCO)CCN(CCCCCC(=O)OCCCCC)CCCCCC(=O)OCCCCC [Compound 20-4, Dipentyl 6,6′-((2-(dodecyl(2-hydroxyethyl)amino)ethyl)azanediyl)dihexanoate] | – | 1.04E+06 p/s | – | 9.46E+06 p/s | – | 3.01E+06 | 1.75E+06 | 6.82E+08 | – | 2.93E+05 | 1.11E+04 | 4.51E+04 | Size (nm) [1, 8]: 82.1 nm; EE (%) [3, 8]: 91.3%; pKa ([6]; rows without footnote mark): 6.86; Total Flux Femur ([7]; femur): 2.09E+04
